Publication PMC5218480 (PLoS ONE, 2017)

Tested on: MV-4-11 cells
Assay: Gene expression microarray analysis (Affymetrix PrimeView) and GSEA
Assay type: cell-based, human
Design: RFU PODN (11730768_x_at) / Fold change /veh PODN (11730768_x_at) / RFU LINC00158 (11744669_a_at) / Fold change /veh LINC00158 (11744669_a_at) / RFU DUSP10 (11751237_a_at) / Fold change /veh DUSP10 (11751237_a_at) / RFU ID3 (11757404_x_at) / Fold change /veh ID3 (11757404_x_at) / RFU PLEKHG5 (11737974_s_at) / Fold change /veh PLEKHG5 (11737974_s_at) / RFU LRRC4B (11730491_at) / Fold change /veh LRRC4B (11730491_at) / RFU GIMAP4 (11747438_a_at) / Fold change /veh GIMAP4 (11747438_a_at) / RFU KRT8 (11758183_x_at) / Fold change /veh KRT8 (11758183_x_at) / RFU CNN1 (11734310_a_at) / Fold change /veh CNN1 (11734310_a_at) / RFU VPS37D (11726825_at) / Fold change /veh VPS37D (11726825_at) / RFU C10orf10 (11716522_x_at) / Fold change /veh C10orf10 (11716522_x_at) / RFU KIR2DL2 /// KIR2DL4 /// KIR2DL5A /// KIR2DL5B /// KIR2DS1 /// KIR2DS2 /// KIR2DS3 /// KIR2DS4 /// KIR3DL3 /// KIR3DL3 /// KIR3DS1 (11738374_at) / Fold change /veh KIR2DL2 /// KIR2DL4 /// KIR2DL5A /// KIR2DL5B /// KIR2DS1 /// KIR2DS2 /// KIR2DS3 /// KIR2DS4 /// KIR3DL3 /// KIR3DL3 /// KIR3DS1 (11738374_at) / RFU C1QL1 (11718748_at) / Fold change /veh C1QL1 (11718748_at) / RFU TMPRSS4 (11747572_a_at) / Fold change /veh TMPRSS4 (11747572_a_at) / RFU HAMP (11756126_x_at) / Fold change /veh HAMP (11756126_x_at) / RFU RNFT2 (11725882_a_at) / Fold change /veh RNFT2 (11725882_a_at) / RFU NR4A2 (11747474_a_at) / Fold change /veh NR4A2 (11747474_a_at) / RFU ABCC12 (11746883_a_at) / Fold change /veh ABCC12 (11746883_a_at) / RFU TMEM136 (11760407_x_at) / Fold change /veh TMEM136 (11760407_x_at) / RFU CLDN22 /// WWC2 (11732394_at) / Fold change /veh CLDN22 /// WWC2 (11732394_at) / RFU HLA-DPB1 (11760878_x_at) / Fold change /veh HLA-DPB1 (11760878_x_at) / RFU SPINT1 (11716480_a_at) / Fold change /veh SPINT1 (11716480_a_at) / RFU GAP43 (11754022_s_at) / Fold change /veh GAP43 (11754022_s_at) / RFU A4GNT (11735810_at) / Fold change /veh A4GNT (11735810_at) / RFU PRB3 (11715151_x_at) / Fold change /veh PRB3 (11715151_x_at) / RFU TUBB4B (11761932_at) / Fold change /veh TUBB4B (11761932_at) / RFU CAPN14 (11732068_a_at) / Fold change /veh CAPN14 (11732068_a_at) / RFU TMCC2 (11721928_a_at) / Fold change /veh TMCC2 (11721928_a_at) / RFU IRGQ (11745062_a_at) / Fold change /veh IRGQ (11745062_a_at) / RFU FAM174B (11720279_a_at) / Fold change /veh FAM174B (11720279_a_at) / RFU TMPRSS4 (11748680_a_at) / Fold change /veh TMPRSS4 (11748680_a_at) / RFU FAM212B (11763350_a_at) / Fold change /veh FAM212B (11763350_a_at) / RFU PLEKHG5 (11743358_a_at) / Fold change /veh PLEKHG5 (11743358_a_at) / RFU ZSCAN30 (11745921_a_at) / Fold change /veh ZSCAN30 (11745921_a_at) / RFU CMKLR1 (11741424_a_at) / Fold change /veh CMKLR1 (11741424_a_at) / RFU LOC101060620 /// MAPK8IP1 (11723275_at) / Fold change /veh LOC101060620 /// MAPK8IP1 (11723275_at) / RFU SPTSSB (11747773_x_at) / Fold change /veh SPTSSB (11747773_x_at) / RFU PRSS12 (11739890_at) / Fold change /veh PRSS12 (11739890_at) / RFU BIN1 (11741810_x_at) / Fold change /veh BIN1 (11741810_x_at) / RFU WNT11 (11732464_a_at) / Fold change /veh WNT11 (11732464_a_at) / RFU C10orf10 (11716521_a_at) / Fold change /veh C10orf10 (11716521_a_at) / RFU C5orf56 (11738089_at) / Fold change /veh C5orf56 (11738089_at) / RFU CYB561 (11721691_x_at) / Fold change /veh CYB561 (11721691_x_at) / RFU ANKRD19P (11752326_a_at) / Fold change /veh ANKRD19P (11752326_a_at) / RFU OR2T12 /// OR2T33 /// OR2T8 (11738714_s_at) / Fold change /veh OR2T12 /// OR2T33 /// OR2T8 (11738714_s_at) / RFU VCAN (11748164_a_at) / Fold change /veh VCAN (11748164_a_at) / RFU JSRP1 (11732532_at) / Fold change /veh JSRP1 (11732532_at) / RFU KRTAP10-11 (11738290_x_at) / Fold change /veh KRTAP10-11 (11738290_x_at) / RFU MYO3A (11730013_a_at) / Fold change /veh MYO3A (11730013_a_at) / RFU EBF3 (11725865_a_at) / Fold change /veh EBF3 (11725865_a_at) / RFU CAMK2N1 (11719241_x_at) / Fold change /veh CAMK2N1 (11719241_x_at) / RFU C5orf56 (11738088_a_at) / Fold change /veh C5orf56 (11738088_a_at) / RFU OLFML3 (11715873_a_at) / Fold change /veh OLFML3 (11715873_a_at) / RFU LOC100653217 /// NTM (11731650_a_at) / Fold change /veh LOC100653217 /// NTM (11731650_a_at) / RFU MAPK11 (11762145_a_at) / Fold change /veh MAPK11 (11762145_a_at) / RFU FIZ1 (11724087_x_at) / Fold change /veh FIZ1 (11724087_x_at) / RFU OASL (11726364_x_at) / Fold change /veh OASL (11726364_x_at) / RFU SOX15 (11748057_x_at) / Fold change /veh SOX15 (11748057_x_at) / RFU CD79A (11719716_a_at) / Fold change /veh CD79A (11719716_a_at) / RFU HIST1H1D (11736915_at) / Fold change /veh HIST1H1D (11736915_at) / RFU CASKIN2 (11723855_a_at) / Fold change /veh CASKIN2 (11723855_a_at) / RFU LOC730098 (11760151_x_at) / Fold change /veh LOC730098 (11760151_x_at) / RFU OR4N2 (11742367_at) / Fold change /veh OR4N2 (11742367_at) / RFU PRRT2 (11749266_a_at) / Fold change /veh PRRT2 (11749266_a_at) / RFU SNX32 (11753110_a_at) / Fold change /veh SNX32 (11753110_a_at) / RFU CDHR5 (11726645_a_at) / Fold change /veh CDHR5 (11726645_a_at) / RFU RCAN1 (11760418_a_at) / Fold change /veh RCAN1 (11760418_a_at) / RFU FAM167A (11723789_a_at) / Fold change /veh FAM167A (11723789_a_at) / RFU FAM26E (11764081_at) / Fold change /veh FAM26E (11764081_at) / RFU ISYNA1 (11749810_s_at) / Fold change /veh ISYNA1 (11749810_s_at) / RFU ACY1 (11761880_at) / Fold change /veh ACY1 (11761880_at) / RFU 11764098_at / Fold change /veh 11764098_at / RFU SAMD14 (11745864_x_at) / Fold change /veh SAMD14 (11745864_x_at) / RFU NPB (11741838_a_at) / Fold change /veh NPB (11741838_a_at) / RFU TMPRSS6 (11731388_a_at) / Fold change /veh TMPRSS6 (11731388_a_at) / RFU KRTAP10-2 (11738614_at) / Fold change /veh KRTAP10-2 (11738614_at) / RFU ARHGAP8 /// PRR5-ARHGAP8 (11727945_x_at) / Fold change /veh ARHGAP8 /// PRR5-ARHGAP8 (11727945_x_at) / RFU KRTAP5-7 /// NADSYN1 (11734609_at) / Fold change /veh KRTAP5-7 /// NADSYN1 (11734609_at) / RFU RASL12 (11751679_a_at) / Fold change /veh RASL12 (11751679_a_at) / RFU CDKN2B (11736163_a_at) / Fold change /veh CDKN2B (11736163_a_at) / RFU PRF1 (11729649_at) / Fold change /veh PRF1 (11729649_at) / RFU, ZNF638 /// ZNF638-IT1 / Fold change vs veh, ZNF638 /// ZNF638-IT1 / RFU, PANK3 / Fold change vs veh, PANK3 / RFU, SH3YL1 / Fold change vs veh, SH3YL1 / RFU, ZEB2 / Fold change vs veh, ZEB2 / RFU, NRIP1 / Fold change vs veh, NRIP1 / RFU, PTTG1IP / Fold change vs veh, PTTG1IP / RFU, CAPN2 / Fold change vs veh, CAPN2 / RFU, MED14 / Fold change vs veh, MED14 / RFU, SNORA58 / Fold change vs veh, SNORA58 / RFU, C1orf63 / Fold change vs veh, C1orf63 / RFU, LRRFIP1 / Fold change vs veh, LRRFIP1 / RFU, NDUFAF7 / Fold change vs veh, NDUFAF7 / RFU, SLC12A2 / Fold change vs veh, SLC12A2 / RFU, IBTK / Fold change vs veh, IBTK / RFU, ESF1 / Fold change vs veh, ESF1 / Fold change vs veh, TMEM50B / RFU, TAOK1 / Fold change vs veh, TAOK1 / RFU, ACBD3 / Fold change vs veh, ACBD3 / RFU, TMA16 / Fold change vs veh, TMA16 / RFU, RWDD3 / Fold change vs veh, RWDD3 / RFU, BCAT1 / Fold change vs veh, BCAT1 / RFU, EDEM3 / Fold change vs veh, EDEM3 / RFU, TMEM33 / Fold change vs veh, TMEM33 / RFU, WDR75 / Fold change vs veh, WDR75 / RFU, AHCTF1 / Fold change vs veh, AHCTF1 / RFU, TFRC / Fold change vs veh, TFRC / RFU, ZDHHC17 / Fold change vs veh, ZDHHC17 / RFU, NOM1 / Fold change vs veh, NOM1 / RFU, ARL8B / Fold change vs veh, ARL8B / RFU, ZBTB11 / Fold change vs veh, ZBTB11 / RFU, TAMM41 / Fold change vs veh, TAMM41 / RFU, KIAA1704 /// LOC100996395 / Fold change vs veh, KIAA1704 /// LOC100996395 / RFU, ING1 / Fold change vs veh, ING1 / RFU, TRMT61B / Fold change vs veh, TRMT61B / RFU, FUBP3 / Fold change vs veh, FUBP3 / RFU, TP53 / Fold change vs veh, TP53 / RFU, TNKS2 / Fold change vs veh, TNKS2 / RFU, ZFP14 / Fold change vs veh, ZFP14 / RFU, ACTR2 / Fold change vs veh, ACTR2 / RFU, PPP3R1 / Fold change vs veh, PPP3R1 / RFU, PIK3R1 / Fold change vs veh, PIK3R1 / RFU, HNRNPA1 / Fold change vs veh, HNRNPA1 / RFU, RNF170 / Fold change vs veh, RNF170 / RFU, ZNF28 / Fold change vs veh, ZNF28 / RFU, RNGTT / Fold change vs veh, RNGTT / RFU, OGT / Fold change vs veh, OGT / RFU, BRD1 / Fold change vs veh, BRD1 / RFU, MARS / Fold change vs veh, MARS / RFU, ZNF655 / Fold change vs veh, ZNF655 / RFU, FAHD1 / Fold change vs veh, FAHD1 / RFU, BDP1 / Fold change vs veh, BDP1 / RFU, LRRCC1 / Fold change vs veh, LRRCC1 / RFU, ARID1A / Fold change vs veh, ARID1A / RFU, ZNF146 / Fold change vs veh, ZNF146 / RFU, ZNF330 / Fold change vs veh, ZNF330 / RFU, GPN3 / Fold change vs veh, GPN3 / RFU, C9orf123 / Fold change vs veh, C9orf123 / RFU, N4BP2L2 / Fold change vs veh, N4BP2L2 / RFU, ARFIP1 / Fold change vs veh, ARFIP1 / RFU, FAM179B / Fold change vs veh, FAM179B / RFU, BCL10 / Fold change vs veh, BCL10 / RFU, UHRF1BP1L / Fold change vs veh, UHRF1BP1L / RFU, BET1 / Fold change vs veh, BET1 / RFU, CNOT2 / Fold change vs veh, CNOT2 / RFU, ZNF268 / Fold change vs veh, ZNF268 / Fold change vs veh, ZNF507 / RFU, DGCR2 / Fold change vs veh, DGCR2 / RFU, WDSUB1 / Fold change vs veh, WDSUB1 / Fold change vs veh, HSP90B1 /// MIR3652 / RFU, ADSS / Fold change vs veh, ADSS / RFU, GK / Fold change vs veh, GK / RFU, ZNF148 / Fold change vs veh, ZNF148 / RFU, TAF9 / Fold change vs veh, TAF9 / RFU, SLC1A5 / Fold change vs veh, SLC1A5 / RFU, SLMO2 / Fold change vs veh, SLMO2 / RFU, ABCC4 / Fold change vs veh, ABCC4 / RFU, LOC101060439 /// RAP1B / Fold change vs veh, LOC101060439 /// RAP1B / RFU, RFX7 / Fold change vs veh, RFX7 / RFU, GTPBP10 / Fold change vs veh, GTPBP10 / RFU, CNEP1R1 / Fold change vs veh, CNEP1R1 / RFU, BIVM-ERCC5 /// ERCC5 / Fold change vs veh, BIVM-ERCC5 /// ERCC5 / RFU, ILF3 / Fold change vs veh, ILF3 / RFU 11762660_at / Fold change /veh 11762660_at / RFU VCAN (11757783_s_at) / Fold change /veh VCAN (11757783_s_at) / RFU DDX43 (11728927_at) / Fold change /veh DDX43 (11728927_at) / RFU KRT8 (11758188_x_at) / Fold change /veh KRT8 (11758188_x_at) / RFU NKD1 (11759106_at) / Fold change /veh NKD1 (11759106_at) / RFU SRD5A1 (11742802_a_at) / Fold change /veh SRD5A1 (11742802_a_at) / RFU TPSAB1 /// TPSB2 (11721975_s_at) / Fold change /veh TPSAB1 /// TPSB2 (11721975_s_at) / RFU GSTM3 (11746129_a_at) / Fold change /veh GSTM3 (11746129_a_at) / RFU IL23R (11737362_x_at) / Fold change /veh IL23R (11737362_x_at) / RFU TMEM51 (11727254_a_at) / Fold change /veh TMEM51 (11727254_a_at) / RFU PIWIL2 (11732686_x_at) / Fold change /veh PIWIL2 (11732686_x_at) / RFU ORM1 (11744905_x_at) / Fold change /veh ORM1 (11744905_x_at) / RFU CCDC152 (11743942_at) / Fold change /veh CCDC152 (11743942_at) / RFU ECM1 (11717891_a_at) / Fold change /veh ECM1 (11717891_a_at) / RFU IL23R (11748794_a_at) / Fold change /veh IL23R (11748794_a_at) / RFU TNFAIP8L3 (11732012_x_at) / Fold change /veh TNFAIP8L3 (11732012_x_at) / RFU MBOAT4 (11741988_at) / Fold change /veh MBOAT4 (11741988_at) / RFU 11764193_at / Fold change /veh 11764193_at / RFU TMEM53 (11763286_at) / Fold change /veh TMEM53 (11763286_at) / RFU MAGEB2 (11727129_at) / Fold change /veh MAGEB2 (11727129_at) / RFU TMEM200A (11744735_a_at) / Fold change /veh TMEM200A (11744735_a_at) / RFU CCDC152 (11751479_a_at) / Fold change /veh CCDC152 (11751479_a_at) / RFU FAM211A (11726209_a_at) / Fold change /veh FAM211A (11726209_a_at) / RFU RGS16 (11746705_a_at) / Fold change /veh RGS16 (11746705_a_at) / RFU VCAN (11755009_s_at) / Fold change /veh VCAN (11755009_s_at) / RFU RHOB (11743442_s_at) / Fold change /veh RHOB (11743442_s_at) / RFU RGS16 (11720943_a_at) / Fold change /veh RGS16 (11720943_a_at) / RFU RGS16 (11720944_at) / Fold change /veh RGS16 (11720944_at) / RFU, VPS4B / Fold change vs veh, VPS4B / RFU, CREB1 / Fold change vs veh, CREB1 / RFU, DNAJC13 / Fold change vs veh, DNAJC13 / RFU, GNAQ / Fold change vs veh, GNAQ / RFU, CDK5R1 / Fold change vs veh, CDK5R1 / RFU, ZRANB3 / Fold change vs veh, ZRANB3 / RFU, CUL4A / Fold change vs veh, CUL4A / RFU, CCNY / Fold change vs veh, CCNY / RFU, UFL1 / Fold change vs veh, UFL1 / RFU, COG3 / Fold change vs veh, COG3 / RFU, DIAPH2 / Fold change vs veh, DIAPH2 / RFU, SKA2 / Fold change vs veh, SKA2 / RFU, AFF3 / Fold change vs veh, AFF3 / RFU, LMF1 / Fold change vs veh, LMF1 / RFU, IPO11 / Fold change vs veh, IPO11 / RFU, DFFB / Fold change vs veh, DFFB / RFU, FOXP1 / Fold change vs veh, FOXP1 / RFU, CARD8 / Fold change vs veh, CARD8 / RFU, STRN3 / Fold change vs veh, STRN3 / RFU, ADK / Fold change vs veh, ADK / RFU, RASSF2 / Fold change vs veh, RASSF2 / RFU, WIPF1 / Fold change vs veh, WIPF1 / RFU, LARP1B / Fold change vs veh, LARP1B / RFU, RASA1 / Fold change vs veh, RASA1 / RFU, RB1 / Fold change vs veh, RB1 / RFU, PPFIA1 / Fold change vs veh, PPFIA1 / RFU, MAT2A / Fold change vs veh, MAT2A / RFU, CCT5 / Fold change vs veh, CCT5 / RFU, WDR92 / Fold change vs veh, WDR92 / RFU, CUX1 / Fold change vs veh, CUX1 / RFU, TTC7A / Fold change vs veh, TTC7A / RFU, TMEM135 / Fold change vs veh, TMEM135 / RFU, DEPTOR / Fold change vs veh, DEPTOR / RFU, CPM / Fold change vs veh, CPM / RFU, DNAJB6 / Fold change vs veh, DNAJB6 / RFU, CACNA2D3 / Fold change vs veh, CACNA2D3 / RFU, DTX4 / Fold change vs veh, DTX4 / RFU, TFCP2 / Fold change vs veh, TFCP2 / RFU, GMCL1 /// GMCL1P1 / Fold change vs veh, GMCL1 /// GMCL1P1 / RFU, AEBP2 / Fold change vs veh, AEBP2 / RFU, SNHG1 /// SNORD22 /// SNORD25 /// SNORD26 /// SNORD27 /// SNORD28 /// SNORD29 /// SNORD31 / Fold change vs veh, SNHG1 /// SNORD22 /// SNORD25 /// SNORD26 /// SNORD27 /// SNORD28 /// SNORD29 /// SNORD31 / Fold change (Aza/veh), C12orf56 (ProbeSet 11735607_a_at) / Fold change (ACY-1035/veh), C12orf56 (ProbeSet 11735607_a_at) / Fold change (Aza/veh), FGFR1OP (ProbeSet 11751329_s_at) / Fold change (ACY-1035/veh), FGFR1OP (ProbeSet 11751329_s_at) / Fold change (Aza/veh), VPS36 (ProbeSet 11739960_a_at) / Fold change (ACY-1035/veh), VPS36 (ProbeSet 11739960_a_at) / RFU SYPL1 (11715823_x_at) / Fold change /veh SYPL1 (11715823_x_at) / RFU IGFBP7 (11715501_s_at) / Fold change /veh IGFBP7 (11715501_s_at) / RFU REEP3 (11722064_at) / Fold change /veh REEP3 (11722064_at) / RFU IGLL1 (11728026_x_at) / Fold change /veh IGLL1 (11728026_x_at): dose or concentration left out as unconfirmed
Conditions: ProbeSet 11758397_s_at; LIST B

SMILES: Nc1ccc(-c2cccs2)cc1NC(=O)c1ccc2c(c1)cc(C1CC1)n2CCN1CCOCC1 [ACY-1035]
- RFU, RNF170: 143.47 RFU
